# Experimental data taken from US8541457B2, “Aminothiazole derivatives as human stearoyl-CoA desaturase inhibitors” (Xenon Pharmaceuticals Inc., priority 2005, dated 2013).
row,melting point [°C],SMILES
1,206 to 208,"Cc1nc(NC(=O)c2ccccc2)sc1C(=O)NCc1ccc(F)cc1 [Example 7.6, 2-Benzoylamino-4-methylthiazole-5-carboxylic Acid 4-Fluorobenzylamide]"
2,169 to 172,"Cc1nc(NCc2ccccc2)sc1C(=O)NCc1ccccc1 [Example 8, 2-Benzylamino-4-methylthiazole-5-carboxylic Acid Benzylamide]"
3,258 to 260,"Cc1nc(NC(=O)c2ccccc2)sc1C(=O)NNC(=O)c1ccccc1 [Example 9, N-(5-(2-Benzoylhydrazinecarbonyl)-4-methylthiazol-2-yl)benzamide]"
4,228 to 231,"Cc1nc(NC(=O)c2ccccc2)sc1C(=O)n1ccnc1 [Example 10, N-(5-(1H-Imidazole-1-carbonyl)-4-methylthiazol-2-yl)benzamide]"
5,188 to 190,"COc1cc(C(=O)Nc2nc(C)c(C(=O)NCc3ccccc3)s2)ccn1 [Example 13, N-Benzyl-2-(2-methoxyisonicotinamido)-4-methylthiazole-5-carboxamide]"
6,290 to 292,"Cc1nc(NC(=O)c2cc[nH]c(=O)c2)sc1C(=O)NCc1ccccc1 [Example 14, N-Benzyl-4-methyl-2-(2-oxo-1,2-dihydropyridine-4-carboxamido)thiazole-5-carboxamide]"
7,260 to 262,"Cc1nc(NC(=O)c2ccn(-c3ccccc3)c(=O)c2)sc1C(=O)NCc1ccccc1 [Example 15, N-Benzyl-4-methyl-2-(2-oxo-1-phenyl-1,2-dihydropyridine-4-carboxamido)thiazole-5-carboxamide]"

# Further lines, the molecule ahead of its results:
row,SMILES,melting point [°C]
1,"Cc1nc(NC(=O)Nc2ccc(Cl)cc2)sc1C(=O)NCc1ccccc1 [Example 4.2, 2-[3-(4-Chlorophenyl)ureido]-4-methylthiazole-5-carboxylic Acid Benzylamide]",> 300
2,"Cc1nc(NC(=O)c2ccc(-c3nn[nH]n3)cc2)sc1C(=O)NCc1ccccc1 [Example 6, 4-Methyl-2-[4-(2H-tetrazol-5-yl)benzoylamino]thiazole-5-carboxylic Acid Benzylamide]",> 300
3,"Cc1nc(NC(=O)c2ccccc2)sc1C(=O)NCC1CC1 [Example 7, 2-Benzoylamino-4-methylthiazole-5-carboxylic Acid Cyclopropylmethylamide]",163 to 166
4,"Cc1nc(NC(=O)c2ccccc2)sc1C(=O)NCc1cccc(Cl)c1 [Example 7.1, 2-Benzoylamino-4-methylthiazole-5-carboxylic Acid 3-Chlorobenzylamide]",198 to 199
5,"Cc1nc(NC(=O)c2ccccc2)sc1C(=O)NCc1cccc(F)c1 [Example 7.2, 2-Benzoylamino-4-methylthiazole-5-carboxylic Acid 3-Fluorobenzylamide]",216 to 217
6,"Cc1nc(NC(=O)c2ccccc2)sc1C(=O)NCc1ccccc1F [Example 7.3, 2-Benzoylamino-4-methylthiazole-5-carboxylic Acid 2-Fluorobenzylamide]",180 to 183
7,"Cc1nc(NC(=O)c2ccccc2)sc1C(=O)NCc1ccccc1Cl [Example 7.4, 2-Benzoylamino-4-methylthiazole-5-carboxylic acid 2-chlorobenzylamide]",191 to 193
8,"Cc1nc(NC(=O)c2ccccc2)sc1C(=O)NCc1ccccc1C(F)(F)F [Example 7.5, 2-Benzoylamino-4-methylthiazole-5-carboxylic Acid 2-Trifluoromethylbenzylamide]",198 to 199
